Article PMC12123366, “Effect of urea and squaramide IMPDH inhibitors on C. parvum: in vitro trial design impacts the assessment of drug efficacy” (International Journal for Parasitology: Drugs and Drug …, 2025)
Where two headings read alike, the source gives them in different places.

Experiments:
[1] = CytoTox 96 Non-Radioactive Cytotoxicity Assay; format: cell-based, Human; conditions: human; HCT-8 cells, 10 µM
Description: (§1) HCT-8 cell lines (Human ileocecal adenocarcinoma) were purchased from The European Collection of Authenticated Cell Cultures (ECACC) under catalogue number No 90032006) and maintained with regular subculturing in a growth medium consisting in a RPMI 1640 medium supplemented with 1 mM sodium pyruvate, 2 mM l-glutamine, 10 % (vol/vol) of heat-inactivated fetal calf serum, 100 U/mL of penicillin and 100 μg/mL of streptomycin. Cells were grown in an incubator at 37 °C with 5 % (vol/vol) CO2 until monolayers reached 80–90 % confluency. Cells were cultivated in 96-well format plate for molecular analysis and in Lab-Tek™ Chamber Slides for microscopic analysis. 50,000 cells were seeded and incubated during 24 h (until confluency) before infection.
(§2) The compounds (2 mg/mL in DMSO) were diluted to 500 μM and serially diluted in maintenance medium. The cytotoxicity of the compounds was assessed using the CytoTox 96® Non-Radioactive Cytotoxicity Assay (Promega, G1790) in accordance with the manufacturer's protocol.
(§3) An initial screening experiment was conducted on the full library to evaluate the cytotoxicity effects on HCT-8 cells. Nitrophenylurea 12 was identified as being cytotoxic so was not progressed further (See Supporting Information). In total, 21 candidates were assessed for their ability to inhibit C. parvum replication at a concentration of 10 μM. Each compound was added at the start of the infection of HCT-8 cells (T0) and remained in the culture for 48 h post infection (hpi). Parasitic quantification was then performed using a molecular method (qPCR). Of the 21 compounds tested, nine were effective inhibitors, reducing parasite proliferation by 80 % or more (Fig. 6). A clear trend emerged with all of the benzyl-substituted ureas 6–10 displaying poor inhibitory activity, regardless of the attached heteroaryl substituent. […] Two exceptions to this were imidazole-containing analogues 18 and 19. […] Among the squaramide series, the results were highly dependent on the nature of the substituent, ranging from high (e.g. ketone 29, furan 32), medium (e.g. 3-pyrazole 30) to low (e.g. 4-pyrazole 31) anti-cryptosporidial activity.

C. parvum [2] = assay: Inhibition of C. parvum replication in infected HCT-8 cells, parasite quantification by qPCR; format: cell-based, Cryptosporidium parvum (Iowa strain) in human HCT-8 cells; conditions: for inhibition at 10 µM / IC50: Cryptosporidium parvum, HCT-8; for inhibition at 10 µM: added at start of infection (T0), 48 hpi, mean ± SD (n = 3 wells), read-out: inhibition rate of C. parvum replication; for inhibition at 10 µM / anti-cryptosporidial activity (in words): 10 μM; for anti-cryptosporidial activity (in words): added at T0, 48 hpi
Description: as §1
(§4) C. parvum oocysts of “Iowa” strain was purchased from Waterborne Inc. and stored in PBS at 4 °C. A ratio of one oocyst per cell was used to infect HCT-8 cell. Oocysts suspension was incubated with 10 % of a solution (vol/vol) containing 0.5 % sodium hypochlorite for 10 min at 4 °C. After a washing step by centrifugation at 1800g for 15 min at 4 °C, oocysts were incubated in acidified water (pH 2.4) containing 0.025 % (wt/vol) of trypsin, at 37 °C for 20 min, to trigger excystation (infectivity assay developed by [Keegan et al., 2003]). After a third centrifugation step at 1800 g for 10 min, oocysts were suspended in a maintenance medium. The maintenance medium consisted of RPMI 1640 medium with 2 mM l-glutamine, 5 mM glucose, 0.5 μM folic acid, 7 μM 4-amino-benzoic acid, 0.1 μM calcium pantothenate, 50 nM ascorbic acid, 2 % (vol/vol) heat inactivated fetal calf serum and 100 U/mL of streptomycin/penicillin. Before oocyst inoculation, the growth medium was switched with maintenance medium. Triggered oocysts were finally added on monolayers and incubated during 48 h at 37 °C in a 5 % (vol/vol) CO2 atmosphere.
as §2
The COWP gene (GenBank no. AF248743) was amplified by qPCR following the previously described protocol ([Guy et al., 2003]), and the parasitic concentration was determined using the standard range of C. parvum oocyst concentrations. Briefly, serial dilutions from a pure C. parvum oocyst suspension were made starting from a stock solution of 5 × 10^7 oocysts (4 × 10^5 – 2 × 10^5 – 1 × 10^5 – […]–2.5 × 10^3–1.25 × 10^3 oocysts) and the standard curve for quantifying parasites was created to obtain a correlation between Cq values and the Log of concentration.
At the end of the experiment, supernatants from the C. parvum-infected cell cultures were collected. The cell layers were then washed (1x PBS), detached using trypsin (0.25 %), and centrifuged (10,000×g, 10 min). The resulting cell pellet was re-suspended in 150–200 μL of sterile 1x PBS and stored at −20 °C for later DNA extraction. DNA extraction of C. parvum was performed using the Purelink™ Microbiome Purification Kit (Invitrogen™) following the manufacturer's protocol “Transport Media and Microbial Culture Samples” ([Invitrogen, 2015]).
FRePCR reactions were formulated to a volume of 25 μL and comprised of 1.25 μL of primers (10 μM), 0.05 μL probe (100 μM), 12.5 μL Master Mix 2X, LightCycler 480 Probes Master (ref. 04707494001, Roche), 4.95 μL H2O nuclease-free and 5 μL of DNA template. Quantitative PCR was run on a CFX96 real time PCR system (BioRad) with an initial step of activation (10 min 95 °C) following by 40 cycles with cycling conditions as follows: 95 °C for 10 s, 60 °C for 1 min. BioRad CFX manager software was used to analyse the data. Samples were considered negative if Cq ≥ 40.
A common way of defining a 50 % response is to use a mathematical model like the 4-parameter logistic model (4 PL) ([Sebaugh, 2011]). […]

HCT-8 cells = assay: CytoTox 96 Non-Radioactive Cytotoxicity Assay; format: cell-based, Human; conditions: 10 µM
Description: as §1, §2, §3

C. parvum [3] = assay: Quantification of C. parvum development in HCT-8 cells by immunofluorescence microscopy; format: cell-based, Cryptosporidium parvum (Iowa strain) in human HCT-8 cells; conditions: for effect on distribution of parasite area: 7.5 μM or 15 μM, added at 30 hpi until 48 hpi; for reduction in parasite quantification: 7.5 μM, added at 30 hpi, until 48 hpi, fluorescence microscopy
Description: as §1, §4
After aspiration of the supernatant from the Nunc™ Lab-Tek™ Chamber slide wells, cells were rinsed with PBS 1X. A fixation step was then performed using methanol during 8 min at 4 °C. Cryptosporidium developmental forms were labelled with a polyclonal IgG antibodies reaction kit tagged with Cy3 (Sporo-Glo™, Waterborne Inc.) and oocysts were labelled with FL-Crypt-a-Glo™, a fluorescein-labelled mouse monoclonal antibody made to oocyst outer wall antigenic sites (epitopes) of C. parvum. Antibodies were 1/20th diluted and incubated on cells for 1 h at room temperature. DNA was labelled with Hoechst for 5 min at room temperature. Slides were then coverslipped with a no fading mounting medium (Waterborne Inc.) and observed with a Leica DMi8 microscope. Each dilution was performed in triplicate and, for each well, ten images were taken at 400× magnification. Parasite quantification was carried out automatically using the StarDist neural network, which was specifically trained to detect and quantify C. parvum parasites.
To confirm our initial findings, we employed an alternative method using immunofluorescence microscopy to quantify C. parvum development in the presence of inhibitors (Fig. S1). […] The results corroborated our initial screening data, confirming the high efficacy of all tested chloronitrophenyl urea analogues, except for imidazole derivatives 18 and 19.
To test this hypothesis, increasing concentrations of squaramide 32 (i.e. 0, 2, 4 and 8 μM) were applied at different infection times: at 0 hpi (hours post infection), to assess the impact on parasite invasion; at 4 hpi, to examine the effect on the early stages of intracellular development; and at 30 hpi, to evaluate the influence on late stage intracellular development. The microscopic images in Fig. 7 illustrate the effect of 32 when applied at the onset of infection and at 30 hpi. Using fluorescent antibodies, the intracellular development of C. parvum is highlighted by green fluorescence, which allows for quantification of the number of parasites per image.

[4] = compounds at 0, 3, 6 and 9 μM added at t0 and left until 48 hpi, qPCR, read-out: IC50

IC50 (C. parvum [2]; [4]) [µM]	SMILES	viability at 10 µM [1] [%]	inhibition at 10 µM (C. parvum [2]; qPCR) [%]	other results
6.19	CC(C)(NC(=O)Nc1ccc(Cl)c([N+](=O)[O-])c1)c1cccc(-c2cc[nH]n2)c1 [Compound 14]	97.6	85.1 ± 3.8	
4.69	CC(C)(NC(=O)Nc1ccc(Cl)c([N+](=O)[O-])c1)c1cccc(-c2nccn2Cc2ccccc2)c1 [Compound 17]	97.3	88.2 ± 1.1	
	CC(C)(NC(=O)NCc1ccccc1)c1cccc(-c2ccccc2)c1 [Compound 10]	97.4		
	CC(C)(Nc1c(Nc2ccc(Cl)c([N+](=O)[O-])c2)c(=O)c1=O)c1cccc(-c2cn[nH]c2)c1 [Compound 31, (3-((2-(3-(1H-Pyrazol-4-yl)phenyl)propan-2-yl)amino)-2-((4-chloro-3-nitrophenyl)amino)-4-oxocyclobut-2-en-1-ylidene)oxonium]			Viability (HCT-8 cells): 96.97%; anti-cryptosporidial activity (in words) (C. parvum [2]; qPCR): low
	CC(C)(NC(=O)NCc1ccccc1)c1cccc(-c2cn[nH]c2)c1 [Compound 7]	96.7		
	CC(C)(NC(=O)NCc1ccccc1)c1cccc(-c2cccs2)c1 [Compound 9]	95.4		
	CC(C)(NC(=O)Nc1ccc(Cl)c([N+](=O)[O-])c1)c1cccc(-c2c[nH]cn2)c1 [Compound 19]	97.4	≤ 50	
5.32	CC(C)(NC(=O)Nc1ccc(Cl)c([N+](=O)[O-])c1)c1cccc(-c2cn[nH]c2)c1 [Compound 16]	96.4	64.3 ± 3.9	
3.59	CC(=O)c1cccc(C(C)(C)Nc2c(Nc3ccc(Cl)c([N+](=O)[O-])c3)c(=O)c2=O)c1 [Compound 29, 3-((2-(3-acetylphenyl)propan-2-yl)amino)-4-((4-chloro-3-nitrophenyl)amino)cyclobut-3-ene-1,2-dione]	97.2	87.7 ± 1.7	anti-cryptosporidial activity (in words) (C. parvum [2]; qPCR): high
	CC(C)(NC(=O)NCc1ccccc1)c1cccc(-c2cc[nH]n2)c1 [Compound 6]	97		
3.23	CCOc1ncccc1-c1cccc(C(C)(C)NC(=O)Nc2ccc(Cl)c([N+](=O)[O-])c2)c1 [Compound 23]	94.1	88 ± 3.5	effect on distribution of parasite area (C. parvum [3]): successfully inhibits larger parasites; reduction in parasite quantification (C. parvum [3]): 32%
6.19	CC(C)(NC(=O)Nc1ccc(Cl)c([N+](=O)[O-])c1)c1cccc(-c2ccco2)c1 [Compound 21]	98.3	64 ± 1	
	NC[C@@H]1O[C@H](O[C@H]2[C@@H](O)[C@H](O[C@@H]3[C@@H](O)[C@H](N)C[C@H](N)[C@H]3O[C@H]3O[C@H](CO)[C@@H](O)[C@H](O)[C@H]3N)O[C@@H]2CO)[C@H](N)[C@@H](O)[C@@H]1O [Paromomycin, reference compound]			IC50 (C. parvum [2]; previous experimentation based on qPCR, standard Cryptosporidium inhibitor in in vitro assays, read-out: mean IC50): 511 µM
	CC(C)(NC(=O)NCc1ccccc1)c1cccc(-c2ccco2)c1 [Compound 8]	95.9		
5.44	CCOC(=O)n1ccc(-c2cccc(C(C)(C)NC(=O)Nc3ccc(Cl)c([N+](=O)[O-])c3)c2)n1 [Compound 13]	97.2	87.5 ± 6.4	
4.51	CC(C)(NC(=O)Nc1ccc(Cl)c([N+](=O)[O-])c1)c1cccc(-c2nccs2)c1 [Compound 20]	98.4	85.7 ± 2.2	
	CC(C)(NC(=O)Nc1ccc(Cl)c([N+](=O)[O-])c1)c1cccc(-c2cn(C(c3ccccc3)(c3ccccc3)c3ccccc3)cn2)c1 [Compound 18]	97.3	≤ 50	
3.77	CC(C)(NC(=O)Nc1ccc(Cl)c([N+](=O)[O-])c1)c1cccc(-c2cccs2)c1 [Compound 22]	98.5	86.6 ± 2.6	
	CC(C)(Nc1c(Nc2ccc(Cl)c([N+](=O)[O-])c2)c(=O)c1=O)c1cccc(-c2cc[nH]n2)c1 [Compound 30, 3-((2-(3-(1H-Pyrazol-3-yl)phenyl)propan-2-yl)amino)-4-((4-chloro-3-nitrophenyl)amino)cyclobut-3-ene-1,2-dione]	98.2		anti-cryptosporidial activity (in words) (C. parvum [2]; qPCR): medium
3.64	CC(C)(NC(=O)Nc1ccc(Cl)c([N+](=O)[O-])c1)c1cccc(-c2cccnc2F)c1 [Compound 24]	96.8	83.4 ± 1.5	effect on distribution of parasite area (C. parvum [3]): dose-dependent effect; reduction in parasite quantification (C. parvum [3]): 10.5%
5.98	CCOC(=O)n1cc(-c2cccc(C(C)(C)NC(=O)Nc3ccc(Cl)c([N+](=O)[O-])c3)c2)cn1 [Compound 15]	97.5	71.7 ± 1.5	
